# Test results taken from patent US20260374781A1, “NOVEL TRIHETEROCYCLIC COMPOUNDS” (IDENCE CO., LTD., priority 2022, published 2026).
# Tested on: AsPC-1 cells
# Assay: Cell Proliferation Assay, AsPC-1 (CellTiter-Glo 2.0 viability)
# Format: cell-based
# Details: AsPC-1 pancreatic cancer (KRAS G12D mutation); 72 hours
# Protocol: Test Example 3: Cell Proliferation Assay
# Cell viability testing of test compounds in AsPC-1 pancreatic cancer (KRAS G12D mutation) or SW480 colon cancer (KRAS G12V mutation) cells for 72 hours
# The reference compound Staurosporine was purchased from Sigma-Aldrich (Saint Louis, MI), and CellTiter-Glo® 2.0 Luminescent cell viability assay reagent (cat #G9243) was purchased from Promega (Madison, WI). AsPC-1 and SW480 cell lines were purchased from American Type Culture Collection (Manassas, VA). AsPC-1 cells were cultured with RPMI-1640 (ATCC, cat #30-2001) and SW480 cells were cultured with DMEM (ATCC cat #30-2002).
# A medium supplemented with 10% FBS (Sigma-Aldrich, cat #F2442) and 100 µg/mL of penicillin-streptomycin (Sigma-Aldrich, cat #P4333) was used. Cells were cultured at 37 °C in a humidified atmosphere of 5% CO2 and 95% air.
# • 1. The test compound and reference compound, Staurosporine were dissolved in DMSO solution to prepare 20 mM (test compound) and 10 mM (control compound, Staurosporine) in the Source Plate and diluted with DMSO to 3-fold and 10 doses. • 2. From the Source Plate, 10 volumes of 125 nL test compound or 25 nL reference compound were dispensed into wells of a 384-well culture plate (VWR, cat #82050-076) using Echo 655. • 3. 25 μL of culture medium including 2000 AsPC-1 or SW480 cells was dispensed into each 384-well cell culture plate. • 4. Cells were cultured with the compound for 72 hours at 37 °C and 5% CO2 conditions. • 5. 25 μL of CellTiter-Glo 2.0 reagent was added to each well of the plate. • 6. The contents were mixed for 2 minutes on an orbital shaker, and the luminescence signal was stabilized at room temperature for 15 minutes. • 7. Luminescence signals were measured with an Envision 2104 Multilabel Reader (PerkinElmer, Santa Clara, CA), and the number of surviving cells was determined through quantification of ATP present in each culture. • 8. IC50 values were calculated based on the Sigmoidal dose-response equation in the GraphPad Prism 4 program.
row,IC50 [µM],SMILES
1,> 10,"C#Cc1c(F)ccc2cc(O)cc(-c3nc4c5c(nc(OC[C@@]67CCCN6C[C@H](F)C7)nc5c3F)N([C@@H](C)c3cccnc3N)CCO4)c12 [Example 13b, 4-(10-((S)-1-(2-aminopyridin-3-yl)ethyl)-4-fluoro-2-(((2R,7aS)-2-fluorotetrahydro-1H-pyrrolizin-7a(5H)-yl)methoxy)-9,10-dihydro-8H-7-oxa-1,3,6,10-tetraazacyclohepta[de]naphthalen-5-yl)-5-ethynyl-6-fluoronaphthalen-2-ol]"

# Same assay, conditions: Homo sapiens, ASPC1, 72 h, AsPC-1 pancreatic cancer (KRAS G12D mutation)
row,SMILES,IC50 [µM]
1,"C#Cc1c(F)ccc2cc(O)cc(-c3nc4c5c(nc(OC[C@@]67CCCN6C[C@H](F)C7)nc5c3F)N(C(C)c3cccnc3N)C[C@H](C)O4)c12 (mixture of isomers) [Example 6, 4-((8S)-10-(1-(2-aminopyridin-3-yl)ethyl)-4-fluoro-2-(((2R,7aS)-2-fluorotetrahydro-1H-pyrrolizin-7a(5H)-yl)methoxy)-8-methyl-9,10-dihydro-8H-7-oxa-1,3,6,10-tetraazacyclohepta[de]naphthalen-5-yl)-5-ethynyl-6-fluoronaphthalen-2-ol]",1 to 10
2,"C#Cc1c(F)ccc2cc(O)cc(-c3nc4c5c(nc(OCC67CC(=C)CN6CC(=C)C7)nc5c3F)N(C(C)c3cccnc3N)C[C@H](C)O4)c12 (stereo partly drawn) [Example 4, 4-((8S)-10-(1-(2-aminopyridin-3-yl)ethyl)-2-((2,6-dimethylenetetrahydro-1H-pyrrolizin-7a(5H)-yl)methoxy)-4-fluoro-8-methyl-9,10-dihydro-8H-7-oxa-1,3,6,10-tetraazacyclohepta[de]naphthalen-5-yl)-5-ethynyl-6-fluoronaphthalen-2-ol]",> 10
3,"C#Cc1c(F)ccc2cc(O)cc(-c3nc4c5c(nc(OCC6(CN7CCOCC7)CC6)nc5c3F)N(C(C)c3cccnc3N)C[C@H](C)O4)c12 (stereo partly drawn) [Example 5, 4-((8S)-10-(1-(2-aminopyridin-3-yl)ethyl)-4-fluoro-8-methyl-2-((1-(morpholinomethyl)cyclopropyl)methoxy)-9,10-dihydro-8H-7-oxa-1,3,6,10-tetraazacyclohepta[de]naphthalen-5-yl)-5-ethynyl-6-fluoronaphthalen-2-ol]",> 10
4,"C#Cc1c(F)ccc2cc(O)cc(-c3nc4c5c(nc(OC[C@@]67CCCN6C[C@H](F)C7)nc5c3F)N([C@@H](C)c3cccnc3N)C[C@H](C)O4)c12 [Example 6b, 4-((S)-10-((S)-1-(2-aminopyridin-3-yl)ethyl)-4-fluoro-2-(((2R,7aS)-2-fluorotetrahydro-1H-pyrrolizin-7a(5H)-yl)methoxy)-8-methyl-9,10-dihydro-8H-7-oxa-1,3,6,10-tetraazacyclohepta[de]naphthalen-5-yl)-5-ethynyl-6-fluoronaphthalen-2-ol]",> 10
5,"C#Cc1c(F)ccc2cc(O)cc(-c3nc4c5c(nc(OCC6CC(F)(F)CN6C)nc5c3F)N(C(C)c3cccnc3N)C[C@H](C)O4)c12 (stereo partly drawn) [Example 7, 4-((8S)-10-(1-(2-aminopyridin-3-yl)ethyl)-2-((4,4-difluoro-1-methylpyrrolidin-2-yl)methoxy)-4-fluoro-8-methyl-9,10-dihydro-8H-7-oxa-1,3,6,10-tetraazacyclohepta[de]naphthalen-5-yl)-5-ethynyl-6-fluoronaphthalen-2-ol]",> 10
6,"C#Cc1c(F)ccc2cc(O)cc(-c3nc4c5c(nc(OC[C@@H]6CCN6CC(F)F)nc5c3F)N(C(C)c3cccnc3N)C[C@H](C)O4)c12 (stereo partly drawn) [Example 8, 4-((8S)-10-(1-(2-aminopyridin-3-yl)ethyl)-2-(((S)-1-(2,2-difluoroethyl)azetidin-2-yl)methoxy)-4-fluoro-8-methyl-9,10-dihydro-8H-7-oxa-1,3,6,10-tetraazacyclohepta[de]naphthalen-5-yl)-5-ethynyl-6-fluoronaphthalen-2-ol]",> 10
7,"C#Cc1c(F)ccc2cc(O)cc(-c3nc4c5c(nc(OCC67COC(C6)C7)nc5c3F)N(C(C)c3cccnc3N)C[C@H](C)O4)c12 (stereo partly drawn) [Example 9, 4-((8S)-2-((2-oxabicyclo[2.1.1]hexan-4-yl)methoxy)-10-(1-(2-aminopyridin-3-yl)ethyl)-4-fluoro-8-methyl-9,10-dihydro-8H-7-oxa-1,3,6,10-tetraazacyclohepta[de]naphthalen-5-yl)-5-ethynyl-6-fluoronaphthalen-2-ol]",1 to 10
8,"C[C@H]1CN([C@@H](C)c2cccnc2N)c2nc(OC[C@@]34CCCN3C[C@H](F)C4)nc3c(F)c(-c4cc(O)cc5ccc(F)c(F)c45)nc(c23)O1 [Example 10b, 4-((S)-10-((S)-1-(2-aminopyridin-3-yl)ethyl)-4-fluoro-2-(((2R,7aS)-2-fluorotetrahydro-1H-pyrrolizin-7a(5H)-yl)methoxy)-8-methyl-9,10-dihydro-8H-7-oxa-1,3,6,10-tetraazacyclohepta[de]naphthalen-5-yl)-5,6-difluoronaphthalen-2-ol]",> 10
9,"CC(c1cccnc1N)N1C[C@H](C)Oc2nc(-c3cc(O)cc(Cl)c3C3CC3)c(F)c3nc(OC[C@@]45CCCN4C[C@H](F)C5)nc1c23 (stereo partly drawn) [Example 11, 3-((8S)-10-(1-(2-aminopyridin-3-yl)ethyl)-4-fluoro-2-(((2R,7aS)-2-fluorotetrahydro-1H-pyrrolizin-7a(5H)-yl)methoxy)-8-methyl-9,10-dihydro-8H-7-oxa-1,3,6,10-tetraazacyclohepta[de]naphthalen-5-yl)-5-chloro-4-cyclopropylphenol]",> 10

# Other lines, results leading:
row,IC50 [µM],SMILES
1,1 to 10,"CCc1c(F)ccc2cc(O)cc(-c3nc4c5c(nc(OC[C@@]67CCCN6C[C@H](F)C7)nc5c3F)N([C@@H](C)c3cccnc3N)CCO4)c12 [Example 14b, 4-(10-((S)-1-(2-aminopyridin-3-yl)ethyl)-4-fluoro-2-(((2R,7aS)-2-fluorotetrahydro-1H-pyrrolizin-7a(5H)-yl)methoxy)-9,10-dihydro-8H-7-oxa-1,3,6,10-tetraazacyclohepta[de]naphthalen-5-yl)-5-ethyl-6-fluoronaphthalen-2-ol]"
2,1 to 10,"C#Cc1c(F)ccc2cc(O)cc(-c3nc4c5c(nc(OC[C@@H]6CC(F)(F)CN6C)nc5c3F)N(C(C)c3cccnc3N)CCO4)c12 (stereo partly drawn) [Example 15, 4-(10-(1-(2-aminopyridin-3-yl)ethyl)-2-(((S)-4,4-difluoro-1-methylpyrrolidin-2-yl)methoxy)-4-fluoro-9,10-dihydro-8H-7-oxa-1,3,6,10-tetraazacyclohepta[de]naphthalen-5-yl)-5-ethynyl-6-fluoronaphthalen-2-ol]"
3,1 to 10,"C=C1CN2CC(=C)CC2(COc2nc3c4c(nc(-c5cc(O)cc6ccc(F)c(CC)c56)c(F)c4n2)OCCN3C(C)c2cccnc2N)C1 (centres unmarked) [Example 19, 4-(10-(1-(2-aminopyridin-3-yl)ethyl)-2-((2,6-dimethylenetetrahydro-1H-pyrrolizin-7a(5H)-yl)methoxy)-4-fluoro-9,10-dihydro-8H-7-oxa-1,3,6,10-tetraazacyclohepta[de]naphthalen-5-yl)-5-ethyl-6-fluoronaphthalen-2-ol]"
4,> 10,"CCc1c(F)ccc2cc(O)cc(-c3nc4c5c(nc(OC[C@@]67CCCN6C[C@H](F)C7)nc5c3F)N(C(C)c3ccccc3N)CCO4)c12 (stereo partly drawn) [Example 21, 4-(10-(1-(2-aminophenyl)ethyl)-4-fluoro-2-(((2R,7aS)-2-fluorotetrahydro-1H-pyrrolizin-7a(5H)-yl)methoxy)-9,10-dihydro-8H-7-oxa-1,3,6,10-tetraazacyclohepta[de]naphthalen-5-yl)-5-ethyl-6-fluoronaphthalen-2-ol]"
5,1 to 10,"CCc1c(F)ccc2cc(O)cc(-c3nc4c5c(nc(OCC6(CN7CC[C@@H](F)C7)CC6)nc5c3F)N(C(C)c3cccnc3N)CCO4)c12 (stereo partly drawn) [Example 26, 4-(10-(1-(2-aminopyridin-3-yl)ethyl)-4-fluoro-2-((1-(((R)-3-fluoropyrrolidin-1-yl)methyl)cyclopropyl)methoxy)-9,10-dihydro-8H-7-oxa-1,3,6,10-tetraazacyclohepta[de]naphthalen-5-yl)-5-ethyl-6-fluoronaphthalen-2-ol]"
6,> 10,"CCc1c(F)ccc2cc(O)cc(-c3nc4c5c(nc(OC[C@@H]6CCCN6CC(F)F)nc5c3F)N(C(C)c3cccnc3N)CCO4)c12 (stereo partly drawn) [Example 27, 4-(10-(1-(2-aminopyridin-3-yl)ethyl)-2-(((S)-1-(2,2-difluoroethyl)pyrrolidin-2-yl)methoxy)-4-fluoro-9,10-dihydro-8H-7-oxa-1,3,6,10-tetraazacyclohepta[de]naphthalen-5-yl)-5-ethyl-6-fluoronaphthalen-2-ol]"
7,> 10,"CCc1c(F)ccc2cc(O)cc(-c3nc4c5c(nc(OC[C@@]67CCCN6C[C@H](F)C7)nc5c3F)N(C)CCO4)c12 [Example 28, 5-ethyl-6-fluoro-4-(4-fluoro-2-(((2R,7aS)-2-fluorotetrahydro-1H-pyrrolizin-7a(5H)-yl)methoxy)-10-methyl-9,10-dihydro-8H-7-oxa-1,3,6,10-tetraazacyclohepta[de]naphthalen-5-yl)naphthalen-2-ol]"
